Test results published in patent US4556662A, “Bispidine derivatives and antiarrhythmic compositions” (BASF Aktiengesellschaft, priority 1981, dated 1985).
≈ marks a conversion by molar mass, not a printed value. Like-named read-outs stand apart in the source and are kept apart here.

What was measured:
[1] = test system: isolated guinea pig atrium; experiment: Isolated guinea pig left atria: decrease in maximum driving rate (antiarrhythmic activity); design: species or system guinea pig (Pirbright white, male); details: for EC50: Cavia porcellus, isolated left atria, pH 7.4, 32° C., read-out: Maximum driving rate EC 50% (concentration which causes a 50% decrease in the maximum driving rate); for Maximum driving rate R.A. (relative activity): reference substance B = 1.00
Method: (§1) The antiarrhythmic activity of the compound according to the invention is determined on isolated left atria of male guinea pigs (Pirbright white, weight 350 to 450 g). Atria suspended in an organ bath (volume 125 ml) containing carbogen (95% O2 /5% CO2)-saturated Tyrode's solution (pH 7.4, 32° C.) are prestressed with 1.0 g and are driven by square wave pulses of 1 Hz base rhythm and double stimulation threshold values (rheo base: 0.2 to 1.4 V, chronaxia: 0.3 to 0.5 msec). As a criterion of the antiarrhythmic activity, the frequency (in Hz) at which the atria are just still able to follow the sequence of pulses (the maximum driving rate) is determined by automatic continuous increase in frequency. The concentration which produces a 50% decrease in maximum driving rate, i.e. the EC 50%, is calculated from the linear relationship between log concentration (mg/1) of the active substance and relative decrease in maximum driving rate (Δ%).

[2] = test system: isolated guinea pig atrium; experiment: Isolated guinea pig left atria: decrease in force of contraction (negatively inotropic effect); design: species or system guinea pig (Pirbright white, male); details: for EC25: Cavia porcellus, isolated left atria, pH 7.4, 32° C., read-out: Force of contraction EC 25% (concentration which causes a 25% decrease in the force of contraction); for Q: quotient EC 25% (decrease in force of contraction)/EC 50% (decrease in maximum driving rate): isolated guinea pig atrium; for Force of contraction R.A. (relative activity): reference substance B = 1.00
Method: as §1
Furthermore, the concentration which produces a 25% decrease in contraction amplitude, i.e. the EC 25%, is determined, as a measure of the negatively inotropic effect, from the linear relationship between log concentration (mg/1) and relative change in contraction amplitude (Δ%).

[3] = test system: aconitine-induced arrhythmia in rats; experiment: Antiarrhythmic effect on aconitine-induced arrhythmia in the rat (oral); format: in vivo, rat (Sprague Dawley, male); details: for ED50: Rattus norvegicus, po, 1 h, read-out: Effective dose EC 50% (dose which prolongs the aconitine infusion time by 50%); for Effective dose R.A. (relative activity): rat, reference substance B = 1.00
Method: (§2) Moreover, the antiarrhythmic activity of the novel substances is determined on male rats (Sprague Dawley, weight 200 to 230 g), after oral administration. 45 minutes after administration of the substance, the animals are anesthetized with sodium thiobutabarbital (100 mg/kg, administered intraperitoneally). Aconitine is used as the arrhythmogenic substance, and is infused intravenously at a rate of 0.005 mg/kg per min, 60 minutes after administration of the test substance. […] The dose which prolongs the infusion time by 50%, i.e. the ED 50%, is determined from the linear relationship between log dose (mg/kg) of the test substance and the relative prolongation of the aconitine infusion time (%).

[4] = Toxicity in the rat (oral), dose at which toxic symptoms occur; format: in vivo, rat (Sprague Dawley, male); details: in vivo, read-out: Q: quotient of the acute toxic dose and the antiarrhythmic ED 50%
Method: as §2
(§3) Further, the dose at which toxic symptoms (changes in the initial ECG, cyanosis or cramp) occur is determined. The quotient of the acute toxic dose and the antiarrhythmic ED 50% is therefore determined as a measure of the toleration.

[5] = test system: rat; experiment: as above; format: in vivo, rat (Sprague Dawley, male); details: for Toxic dose (dose after whose administration the first toxic symptoms are observed): changes in the initial ECG, cyanosis or cramp
Method: as §2, §3

[6] = test system: isolated strips of rat aorta; experiment: Constrictive effect on isolated strips of rat aorta; details: for EC50: spiral strips of rat aorta, 37° C.
Description: The novel compounds are further characterized by investigation whether, in addition to antiarrhythmic properties, stimulating effects on smooth muscle, which may lead to undesirable side effects (hypertension or stimulation of the uterus), are detectable.

[7] = test system: blood pressure of unanesthetized dogs; experiment: Effect on the blood pressure of unanesthetized dogs (intravenous); format: in vivo, dog
Method: Moreover, the effect of the compound according to the invention on the systolic and diastolic blood pressure of unanesthetized dogs on intravenous administration is tested.

[8] = read-out: EC 50, constrictive effect (50% of the contraction obtained with noradrenalin 10^-6 mol/l)

| Compound | EC50 [1] | Maximum driving rate R.A. (relative activity) [1] | EC25 [2] | Q: quotient EC 25% (decrease in force of contraction)/EC 50% (decrease in maximum driving rate) [2] | Force of contraction R.A. (relative activity) [2] | ED50 [3] | Effective dose R.A. (relative activity) ([3]; oral) | selectivity ratio [4] | Toxic dose (dose after whose administration the first toxic symptoms are observed) [5] | EC50 [6, 8] | effect on systolic and diastolic blood pressure (in words) [7] | Change in blood pressure, diastolic ([7]; 2.0 mg/kg) | Change in blood pressure, systolic ([7]; 2.0 mg/kg) | further results |
| --- | --- | --- | --- | --- | --- | --- | --- | --- | --- | --- | --- | --- | --- | --- |
| c1ccc(CN2CC3CC(C2)CN(CC(c2ccccc2)c2ccccc2)C3)cc1 [A, N-benzyl-N'-(2,2-diphenylethyl)-bispidine] | 1.43 µg/mL (≈ 3.61 µM) | 3.93 | 4.92 µg/mL (≈ 12.4 µM) | 3.44 | 4.43 | 13 mg/kg | 1.75 | 7.7 | 100 mg/kg | – | – | – | – | – |
| c1ccc(CN2CC3CC(C2)CN(Cc2ccccc2)C3)cc1 [B, N,N'-bisbenzylbispidine] | 5.92 µg/mL (≈ 19.3 µM) | – | 21.8 µg/mL (≈ 71.1 µM) | 3.68 | – | 22.7 mg/kg | – | 4.4 | 100 mg/kg | 3.8 µM | substantial increase in the systolic and in particular in the diastolic blood pressure | +59 Δmm Hg | +20 Δmm Hg | – |
| Nc1ccc(C(=O)N2CC3CC(CN(Cc4ccccc4)C3)C2)cc1 [C, N-(4-Aminobenzoyl)-N'-benzylbispidine] | 6.14 µg/mL (≈ 18.3 µM) | 0.96 | 100 µg/mL (≈ 298 µM) | 16.3 | 0.22 | 6.37 mg/kg | 3.56 | 7.3 | 46.4 mg/kg | – | no hypertensive effect | -2 Δmm Hg | -5 Δmm Hg | antiarrhythmic effect on isolated guinea pig atria (in words) ([1]; decrease in maximum driving rate): powerful antiarrhythmic effect; decrease in the force of contraction (in words) ([2]; isolated guinea pig atria): relatively small decrease in the force of contraction; antiarrhythmic activity relative to reference substance A ([3]; aconitine-induced arrhythmia in rats, oral, versus A): twice; antiarrhythmic activity relative to reference substance B ([3]; aconitine-induced arrhythmia in rats, oral, versus B): about 4 times; antiarrhythmic activity relative to sparteine ([3]; aconitine-induced arrhythmia in rats, oral, versus sparteine): ~18 times; difference between toxic and antiarrhythmic doses, relative to reference substances ([5]; versus reference substances): about twice the difference or about the same difference, respectively; stimulating effects on smooth muscle (in words) ([6]; Table 3): lack of stimulating effects on smooth muscle; constrictive effect on the vascular muscle in vitro (in words) ([6]; even in very high concentrations (3.10^-4 mol/l)): no constrictive effect; EC50 ([6]; no effect up to 3.10^-4 mol/l, read-out: EC 50, constrictive effect (symbol for no effect)): > 300 µM |
| C1CCN2C[C@@H]3C[C@@H](CN4CCCC[C@@H]34)[C@H]2C1 [Sparteine, sparteine] | – | – | – | – | – | 112 mg/kg | 4.93 | 4.1 | 464 mg/kg | 550 µM | substantial increase in the systolic and in particular in the diastolic blood pressure | – | – | Change in blood pressure, diastolic ([7]; 5.0 mg/kg): +40 Δmm Hg; Change in blood pressure, systolic ([7]; 5.0 mg/kg): +19 Δmm Hg |
